Experimental data: ChEMBL document CHEMBL5120966, “Spicatulides A-G, Phenolic-Monoterpenoid Hybrids from Chloranthus spicatus” (J Nat Prod, 2022)

Key:
HepG2 [1] = test: Inhibition of lipogenesis in human HepG2 cells assessed as reduction in sterol synthesis; assay type: functional, cell-based; conditions: dose 12.5-50 µM, DDE = dose-dependent effect
HepG2 [2] = test: Inhibition of lipogenesis in human HepG2 cells assessed as reduction in fatty acids synthesis; assay type: functional, cell-based; conditions: dose 0.1-1 µM, DDE = dose-dependent effect

Row | SMILES | dose-dependent inhibition (qualitative) (HepG2 [1]) | inhibition (HepG2 [2])
1 | COC(=O)Cc1cc(O)cc2c1O[C@@](C)(CCC=C(C)C)C=C2 | Dde | 
2 | COC(=O)[C@@]1(O)c2cc(O)cc(C/C=C(\C)CCC=C(C)C)c2O[C@@]2(C)C=C[C@H](C(C)C)C[C@@H]12 | Dde | 
3 | COC(=O)[C@H]1c2cc(O)cc(C/C=C(\C)CCC=C(C)C)c2O[C@@]2(C)[C@@H](O)C=C(C(C)C)C[C@@H]12 | Dde | 
4 | COC(=O)C[C@@]1(C/C=C(\C)CCC=C(C)C)CC(=O)C=C[C@@H]1O | Dde | Dde
